From ChEMBL document CHEMBL1909046, “DrugMatrix in vitro pharmacology data” come the findings set out here.

System in one assay: not listed separately
Nature of the assay: DRUGMATRIX: Imidazoline I2, Central radioligand binding (ligand: [3H] Idazoxan). It is filed as cell membranes, Rattus norvegicus, Wistar, Cerebral cortex, Membrane. Conditions: Not Active = under 50% inhibition at 10 µM.
Take `CC(C)c1cccc(C(C)C)c1O` [PROPOFOL]: the IC50 (in general, the concentration at which inhibition is half-maximal) is recorded as “Not Active” and the Ki (in general, a measure of affinity in units of concentration, obtained from inhibition or displacement) is “Not Active”.

With `C[C@@H]1O[C@@H](O[C@@H]2C=C3CC[C@@H]4[C@H](CC[C@]5(C)[C@@H](c6ccc(=O)oc6)CC[C@]45O)[C@@]3(C)CC2)[C@H](O)[C@H](O)[C@H]1O` [PROSCILLARIDIN], the IC50 entry is on record as “Not Active” and the inhibition constant (Ki) result was “Not Active”.

As to `Oc1cccc(O)c1O` [PYROGALLOL], the IC50 entry was “Not Active” and the Ki result is recorded as “Not Active”.

With AURANOFIN, the IC50 entry was “Not Active” and the Ki entry is “Not Active”.

On to GADOPENTETATE DIMEGLUMINE, for which the concentration for half-maximal inhibition (IC50) entry is reported as “Not Active” and the Ki entry is “Not Active”.

Turning to GENTAMICIN, the IC50 entry is given as “Not Active” and the Ki result is “Not Active”.

With GRAMICIDIN, the IC50 result is given as “Not Active” and the Ki entry is “Not Active”.

The assay is the same for the next values; noted with them: Not Active = under 50% inhibition at 10 µM; read-out: Ki.
Take `COc1cc2nc(N3CCN(C(=O)c4ccco4)CC3)nc(N)c2cc1OC` [PRAZOSIN]: the Ki turned out to be 633 nM.

The target in a further assay is 5-hydroxytryptamine receptor 4 (Cavia porcellus, UniProt O70528). Further: in other assays of this panel Not Active means under 50% inhibition at 10 µM.
Chain of 5-hydroxytryptamine receptor 4 (O70528 whole entry): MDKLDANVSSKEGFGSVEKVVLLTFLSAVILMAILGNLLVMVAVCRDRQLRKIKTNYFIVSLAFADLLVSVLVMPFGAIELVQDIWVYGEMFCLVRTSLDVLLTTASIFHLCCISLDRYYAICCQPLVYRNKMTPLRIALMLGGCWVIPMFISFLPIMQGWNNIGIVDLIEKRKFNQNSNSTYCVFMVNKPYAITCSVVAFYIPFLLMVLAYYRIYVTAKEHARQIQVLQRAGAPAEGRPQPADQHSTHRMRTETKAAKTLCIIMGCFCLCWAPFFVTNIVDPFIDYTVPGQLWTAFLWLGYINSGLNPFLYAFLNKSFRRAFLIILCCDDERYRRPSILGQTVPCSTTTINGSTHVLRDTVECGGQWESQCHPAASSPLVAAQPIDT
Test: not given
The assay is classed as cell membranes, Dunkin-Hartley, Striatum, Membrane.
Details: not given
On to `COc1cc2nc(N3CCN(C(=O)c4ccco4)CC3)nc(N)c2cc1OC` [PRAZOSIN], for which the IC50 entry is given as “Not Active”.

As for `CC(C)c1cccc(C(C)C)c1O` [PROPOFOL], the half-maximal inhibitory concentration (IC50) result is “Not Active”.

On to `C[C@@H]1O[C@@H](O[C@@H]2C=C3CC[C@@H]4[C@H](CC[C@]5(C)[C@@H](c6ccc(=O)oc6)CC[C@]45O)[C@@]3(C)CC2)[C@H](O)[C@H](O)[C@H]1O` [PROSCILLARIDIN], for which the IC50 result is reported as “Not Active”.

`Oc1cccc(O)c1O` [PYROGALLOL]: the IC50 entry is “Not Active”.

For the compound AURANOFIN, the IC50 result is reported as “Not Active” and the Ki result was “Not Active”.

As to GADOPENTETATE DIMEGLUMINE, the IC50 result is recorded as “Not Active” and the inhibition constant Ki entry is “Not Active”.

With GENTAMICIN, the IC50 entry is given as “Not Active” and the Ki result is recorded as “Not Active”.

With GRAMICIDIN, the IC50 entry is given as “Not Active” and the Ki entry is reported as “Not Active”.

The next assay concerns the target T1, Interstitial collagenase (Homo sapiens, UniProt P03956).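 Further: MMP-1 enzyme inhibition assay using a peptide substrate; in other assays of this panel Not Active means under 50% inhibition at 10 µM.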
T1 sequence (P03956 whole entry): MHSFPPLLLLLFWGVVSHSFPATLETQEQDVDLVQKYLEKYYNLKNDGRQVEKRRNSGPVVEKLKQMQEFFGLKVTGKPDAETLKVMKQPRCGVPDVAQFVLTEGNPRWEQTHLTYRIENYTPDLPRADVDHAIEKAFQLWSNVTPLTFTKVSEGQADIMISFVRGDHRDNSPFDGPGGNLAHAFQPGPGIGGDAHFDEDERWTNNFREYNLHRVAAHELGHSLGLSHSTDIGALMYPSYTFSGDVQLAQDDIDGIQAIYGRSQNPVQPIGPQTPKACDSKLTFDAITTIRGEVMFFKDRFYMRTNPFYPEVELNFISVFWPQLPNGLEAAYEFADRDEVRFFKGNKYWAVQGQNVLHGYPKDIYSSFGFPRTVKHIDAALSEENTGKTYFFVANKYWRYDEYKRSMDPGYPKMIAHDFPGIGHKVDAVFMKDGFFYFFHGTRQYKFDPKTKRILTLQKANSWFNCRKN
As to the kind of experiment: biochemical. It is filed as tissue-based, Rheumatoid synovial fibroblasts.
Details: not given
Turning to `CC(C)c1cccc(C(C)C)c1O` [PROPOFOL], the IC50 result was “Not Active”.

Regarding `C[C@@H]1O[C@@H](O[C@@H]2C=C3CC[C@@H]4[C@H](CC[C@]5(C)[C@@H](c6ccc(=O)oc6)CC[C@]45O)[C@@]3(C)CC2)[C@H](O)[C@H](O)[C@H]1O` [PROSCILLARIDIN], the IC50 result is “Not Active”.

Turning to `Oc1cccc(O)c1O` [PYROGALLOL], the IC50 entry was “Not Active”.

Take AURANOFIN: the 50% inhibitory concentration (IC50) result was “Not Active” and the Ki entry is “Not Active”.

Take GADOPENTETATE DIMEGLUMINE: the 50% inhibitory concentration (IC50) entry was “Not Active” and the Ki entry was “Not Active”.

Regarding GENTAMICIN, the half-maximal inhibitory concentration (IC50) entry is “Not Active” and the Ki result is “Not Active”.

GRAMICIDIN: the half-inhibitory concentration (IC50) entry was “Not Active” and the Ki entry was “Not Active”.

Still in this assay, the particulars now being: read-out: IC50.
Turning to `COc1cc2nc(N3CCN(C(=O)c4ccco4)CC3)nc(N)c2cc1OC` [PRAZOSIN], the 50% inhibitory concentration (IC50) amounted to 4040 nM.

System in the next assay: not listed separately
As to the kind of experiment: DRUGMATRIX: Glutamate, AMPA radioligand binding (ligand: [3H] AMPA). The assay is classed as cell membranes, Rattus norvegicus, Wistar, Cerebral cortex, Membrane. Particulars: Not Active = under 50% inhibition at 10 µM.
As for `COc1cc2nc(N3CCN(C(=O)c4ccco4)CC3)nc(N)c2cc1OC` [PRAZOSIN], the IC50 entry is “Not Active” and the Ki result was “Not Active”.

Consider `CC(C)c1cccc(C(C)C)c1O` [PROPOFOL], for which the IC50 result is reported as “Not Active” and the Ki entry is “Not Active”.

Turning to `C[C@@H]1O[C@@H](O[C@@H]2C=C3CC[C@@H]4[C@H](CC[C@]5(C)[C@@H](c6ccc(=O)oc6)CC[C@]45O)[C@@]3(C)CC2)[C@H](O)[C@H](O)[C@H]1O` [PROSCILLARIDIN], the IC50 entry is reported as “Not Active” and the inhibition constant Ki result is reported as “Not Active”.

`Oc1cccc(O)c1O` [PYROGALLOL]: the IC50 entry is recorded as “Not Active” and the Ki entry is recorded as “Not Active”.

For the compound AURANOFIN, the IC50 result is “Not Active” and the Ki result is “Not Active”.

With GADOPENTETATE DIMEGLUMINE, the half-inhibitory concentration (IC50) entry was “Not Active” and the Ki result is reported as “Not Active”.

Regarding GENTAMICIN, the IC50 entry is “Not Active” and the Ki entry is given as “Not Active”.

In the case of GRAMICIDIN, the IC50 entry is on record as “Not Active” and the Ki entry is recorded as “Not Active”.

System in a further assay: not listed separately
Nature of the assay: DRUGMATRIX: Glutamate, NMDA, Agonism radioligand binding (ligand: [3H] CGP-39653). The assay is classed as cell membranes, Rattus norvegicus, Wistar, Cerebral cortex, Membrane. Conditions: Not Active = under 50% inhibition at 10 µM.
With `COc1cc2nc(N3CCN(C(=O)c4ccco4)CC3)nc(N)c2cc1OC` [PRAZOSIN], the IC50 result is “Not Active” and the Ki result is listed as “Not Active”.

For `CC(C)c1cccc(C(C)C)c1O` [PROPOFOL], the IC50 result is on record as “Not Active” and the Ki entry was “Not Active”.

For the compound `C[C@@H]1O[C@@H](O[C@@H]2C=C3CC[C@@H]4[C@H](CC[C@]5(C)[C@@H](c6ccc(=O)oc6)CC[C@]45O)[C@@]3(C)CC2)[C@H](O)[C@H](O)[C@H]1O` [PROSCILLARIDIN], the IC50 entry is “Not Active” and the Ki result is recorded as “Not Active”.

Regarding `Oc1cccc(O)c1O` [PYROGALLOL], the IC50 entry is “Not Active” and the inhibition constant (Ki) entry is given as “Not Active”.

In the case of AURANOFIN, the IC50 entry was “Not Active” and the Ki result was “Not Active”.

Consider GADOPENTETATE DIMEGLUMINE, for which the IC50 entry was “Not Active” and the Ki entry is recorded as “Not Active”.

Regarding GENTAMICIN, the IC50 entry was “Not Active” and the Ki entry is on record as “Not Active”.

On to GRAMICIDIN, for which the IC50 result was “Not Active” and the Ki result is reported as “Not Active”.

The target in a further assay is T2, Cysteinyl leukotriene receptor 1 (Homo sapiens, UniProt Q9Y271). Further: in other assays of this panel Not Active means under 50% inhibition at 10 µM.
T2 sequence (Q9Y271 whole entry): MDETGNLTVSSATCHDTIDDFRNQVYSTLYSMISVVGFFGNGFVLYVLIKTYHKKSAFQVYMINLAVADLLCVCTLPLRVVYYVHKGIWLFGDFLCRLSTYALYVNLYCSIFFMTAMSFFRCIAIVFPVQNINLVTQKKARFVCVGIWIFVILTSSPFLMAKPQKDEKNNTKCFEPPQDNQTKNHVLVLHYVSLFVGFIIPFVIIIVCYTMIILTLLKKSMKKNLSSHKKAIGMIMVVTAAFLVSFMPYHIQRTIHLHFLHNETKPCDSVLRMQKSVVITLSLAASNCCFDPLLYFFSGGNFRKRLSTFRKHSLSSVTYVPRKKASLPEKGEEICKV
Test: not given
It is filed as cell membranes, Membrane. Particulars: cho-k1.
Take `COc1cc2nc(N3CCN(C(=O)c4ccco4)CC3)nc(N)c2cc1OC` [PRAZOSIN]: the IC50 entry is “Not Active”.

On to `CC(C)c1cccc(C(C)C)c1O` [PROPOFOL], for which the IC50 entry is listed as “Not Active”.

Turning to `C[C@@H]1O[C@@H](O[C@@H]2C=C3CC[C@@H]4[C@H](CC[C@]5(C)[C@@H](c6ccc(=O)oc6)CC[C@]45O)[C@@]3(C)CC2)[C@H](O)[C@H](O)[C@H]1O` [PROSCILLARIDIN], the IC50 result was “Not Active”.

Consider `Oc1cccc(O)c1O` [PYROGALLOL], for which the IC50 entry was “Not Active”.

As for AURANOFIN, the IC50 entry was “Not Active” and the inhibitory constant (Ki) result is listed as “Not Active”.

On to GADOPENTETATE DIMEGLUMINE, for which the 50% inhibitory concentration (IC50) result is recorded as “Not Active” and the Ki entry is “Not Active”.

Take GENTAMICIN: the 50% inhibitory concentration (IC50) result was “Not Active” and the Ki entry is given as “Not Active”.

With GRAMICIDIN, the IC50 entry was “Not Active” and the inhibition constant (Ki) entry is “Not Active”.

System in another assay: not listed separately
Nature of the assay: DRUGMATRIX: Purinergic P2X radioligand binding (ligand: [3H] alpha, beta-Methylene-ATP). It is filed as cell membranes, Oryctolagus cuniculus, New Zealand albino, Urinary bladder, Membrane. Particulars: Not Active = under 50% inhibition at 10 µM.
As for `COc1cc2nc(N3CCN(C(=O)c4ccco4)CC3)nc(N)c2cc1OC` [PRAZOSIN], the IC50 result is listed as “Not Active” and the Ki entry is reported as “Not Active”.

Turning to `CC(C)c1cccc(C(C)C)c1O` [PROPOFOL], the 50% inhibitory concentration (IC50) result was “Not Active” and the Ki result was “Not Active”.

With `C[C@@H]1O[C@@H](O[C@@H]2C=C3CC[C@@H]4[C@H](CC[C@]5(C)[C@@H](c6ccc(=O)oc6)CC[C@]45O)[C@@]3(C)CC2)[C@H](O)[C@H](O)[C@H]1O` [PROSCILLARIDIN], the IC50 entry was “Not Active” and the Ki entry is “Not Active”.

`Oc1cccc(O)c1O` [PYROGALLOL]: the half-maximal inhibitory concentration (IC50) entry is “Not Active” and the Ki result was “Not Active”.

With AURANOFIN, the IC50 entry is listed as “Not Active” and the inhibition constant (Ki) result was “Not Active”.

GADOPENTETATE DIMEGLUMINE: the IC50 entry was “Not Active” and the Ki entry is listed as “Not Active”.

Regarding GENTAMICIN, the IC50 entry is “Not Active” and the Ki entry is reported as “Not Active”.

For GRAMICIDIN, the half-maximal inhibitory concentration (IC50) result is “Not Active” and the Ki result is “Not Active”.
